Data published in PMC5760531, “Action Potential Recording and Pro-arrhythmia Risk Analysis in Human Ventricular Trabeculae” (Frontiers in Physiology, 2018).

Test system: human ventricular trabeculae
Experiment: Action potential recording and pro-arrhythmic score analysis in human ventricular trabeculae (hVT);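 further: sharp microelectrode action potential recordings at 37°C in Tyrode-perfused trabeculae, 4 cumulative concentrations each applied 31 min, values averaged over last 30 APs, vehicle 0.1% DMSO as control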
Settings: at 91-fold hETPC

With `COc1c(N2C[C@@H]3CCCN[C@@H]3C2)c(F)cc2c(=O)c(C(=O)O)cn(C3CC3)c12` [MOXIFLOXACIN, Moxifloxacin] the EAD detection was “only detected in one trabecula”.
